The values below come from publication PMC10342804, “Neuroprotective and Disease-Modifying Effects of the Triazinetrione ACD856, a Positive Allosteric Modulator of Trk-Receptors for the Treatment of Cognitive Dysfunction in Alzheimer’s Disease” (International Journal of Molecular Sciences, 2023).

On the set-up of test [1]: method as in PMID 34440640. The following applies: s.c., doses 0.3 mg/kg up to 3 mg/kg; cited from earlier work.
In another test the test system is C57BL/6J mice. As to the kind of experiment: Forced swim test. In kind it is in vivo, mouse. The following applies: ACD856 1 mg/kg s.c. five days; ketamine single dose 10 mg/kg seven days prior to swimming session. How it is done: Depression-like behavior was assessed in male C57BL/6J mice using a modified version of the FST, as described previously. This included a two-day protocol test, with pre-exposure to water 24 h prior to the test (day one of FST), which seems to be a more accurate and sensitive technique in detecting depression-like behavior in mice than the standard method of a single exposure (one day test). Animals were individually placed in a vertical glass cylinder (50 cm high, 20 cm in diameter, CMA) filled with tap water up to 35 cm (25 ± 0.5 °C). Two swimming sessions were conducted: a 10 min pre-test (day one) followed 24 h later (day two) by a 6 min test session. The total duration of immobility, as well as latency to the first immobility, were recorded during the 6 min test. After each swimming session, the mice were gently removed and placed in a home cage together with dry napkins. Immobility was defined as floating passively in an upright position in water with only small movements necessary to keep the head above the water’s surface. The floating time was considered an index of depression-like behavior. The glass cylinder was cleaned thoroughly between each animal.

Test [2] deals with ERK1/2 and Trk-receptors phosphorylation. As to the kind of experiment: Western blot of pERK1/2 and phospho-Trk in cortical neurons stimulated with growth factors. In kind it is cell-based, mouse. Conditions: 10 ng/mL factor, 20 min. On the procedure: (§1) Figure 2 Increased activation of TrkB and downstream signaling through ERKK1/2 MAPK phosphorylation by BDNF and ACD856. Levels of phosphorylated TrkB receptors were determined by ELISA in SH-SY5Y cells overexpressing the human TrkB receptor (a). Effect of 0 (open bars), 10 (light grey bars), or 30 ng BDNF/mL (dark grey bars) and time course on BDNF-induced TrkB tyrosine phosphorylation are depicted as the mean of one experiment performed in quadruplicates +/− SEM * p < 0.05. SH-SY5Y-TrkB cells were incubated with 30 ng BDNF/mL for 10 min in the absence (DMSO) or presence of increasing concentrations of ACD856 (b). […] Data shown are the mean value +/− SEM from three independent experiments where each experiment was performed using at least 5 technical repeats. The effect of different neurotrophic factors on the phosphorylation of ERK1/2 and Trk-receptors was investigated (c). Cortical neurons were stimulated with 10 ng/mL of the indicated factors, and the levels of pERK1/2 (upper panel), phospho-Trk (tyrosine 674/675) (mid panel), and beta-actin as a loading control (lower panel) were analyzed by Western blot. Primary cortical neurons were incubated with 300 nM ACD856 for the indicated time periods in the absence of exogenous BDNF (d). The levels of phosphorylated ERK1/2 were determined by immunocytochemistry, and the total count per well of pERK1/2-positive neurites was determined. Fluorescence image at ×10 magnification showing phospho-ERK1/2 detected with immunocytochemistry in cortical neurons (e). * p < 0.05, ** p < 0.01 compared to control group at one-way ANOVA with Dunnett’s multiple comparisons test. Data shown are the mean value of all replicates +/− SEM from three different experiments.
Phosphorylated ERK 1/2 (pERK1/2) levels were evaluated in mouse primary neurons between DIV10–15. Cells were seeded at (60 × 10^4 cells) in 6-well plates coated with poly-D-Lysine. The activation of the Trk signaling pathway was induced with 10 ng/mL ligand for 20 min. Cells were thereafter immediately lysed on ice, sonicated, and denatured at 95 °C for 10 min on a heating block. Proteins were separated on a Novex Bis-Tris 4–12% gel and transferred to a PVDF membrane using an iBlot instrument (Invitrogen). The membrane was blocked using 5% BSA in TBS-T followed by incubation with anti-phospho-p44/42 MAPK (ERK1/2) rabbit monoclonal antibody (Cell Signaling CS-4370) (dilution 1:1000) in TBS-T with 0.1% BSA for at least 60 min. […] After washing, a Western blot detection reagent (Forte, Millipore) was added, and immunoreactive proteins were detected by luminescence using C-DiGit Blot Scanner and quantified with Image Studio™ Software (version 5.2). […]

Test [3] concerns primary cortical neurons. As to the kind of experiment: Resazurin assay, energy-deprived primary cortical neurons. The following applies: 10 ng/mL, no glucose or pyruvate, vs untreated cells. In kind it is cell-based, mouse. On the procedure:
(§2) Metabolic activity was determined by measuring reduction in resazurin (a). […] Data shown are the means of all replicates +/− SEM from at least three different primary cultures. * p-value < 0.05, ** p-value < 0.01, *** p-value < 0.001, **** p-value < 0.0001 compared to control group at one-way ANOVA with Dunnett’s multiple comparisons test.
Cells were seeded at […] in 96-well plates and treated at DIV4–5 in Neurobasal-A media with 2% B27 and 2 mM glutamine (no glucose or pyruvate was present). Two hours after treatment, a 10% volume of resazurin ready-to-use solution was added to the cell culture media, and the plates were returned to the incubator for a further four hours. Resazurin reduction is directly proportional to metabolic function and was evaluated fluorometrically at 540 nm excitation and 580 nm emission wavelengths using a SpectraMax iD5 plate reader. Results were presented as a percentage change compared to the control group.

Test [4] has as its system primary cortical neurons. Nature of the test: Mitochondrial ToxGlo assay (ATP levels, cell membrane integrity), energy-deprived primary neurons. In kind it is cell-based, mouse. Conditions: for cell membrane integrity: glucose and pyruvate withdrawal; for ATP levels: neurotrophins, 6 h, no glucose or pyruvate. On the procedure:
as §2
Mitochondrial ToxGlo assay was used to evaluate the cell membrane integrity and the ATP levels of PCN cells. At DIV4–5, cells seeded at […] in 96-well plates were treated for six and three hours with increasing doses of neurotrophins and ACD856, respectively, in Neurobasal-A media containing 2% B27 and 2 mM glutamine. No glucose or pyruvate was present in the cell media to prevent non-mitochondrial ATP production from glycolysis. Then, bis-AAF-R110, a fluorogenic substrate that is exclusively cleaved by proteases released from membrane-compromised cells, was added, and the plate was incubated at 37 °C for 30 min. Fluorescence was measured at 485 nm (Ex)/530 nm (Em) using a SpectraMax iD5 plate reader. Next, the ATP detection reagent was added, and luminescence was measured after 5 min incubation to assess ATP levels in lysed cells.

In a further test the target is T1, human TrkB receptor (Homo sapiens, UniProt Q16620).
T1 construct: host or cells: SH-SY5Y (human neuroblastoma) stably expressing TrkB
Nature of the test: Phospho-TrkB ELISA in SH-SY5Y cells overexpressing TrkB. In kind it is cell-based. Conditions: 10 or 30 ng BDNF/mL, time course. On the procedure: as §1, with “The effect of different neurotrophic factors on the phosphorylation of ERK1/2 and Trk-receptors was investigated (c).” left out, “Primary cortical neurons were incubated with 300 nM ACD856 for the indicated time periods in the absence of exogenous BDNF (d).” left out, “Data shown are the mean value of all replicates +/− SEM from three different experiments.” left out
(In general: ELISA stands for enzyme-linked immunosorbent assay.)

As to `Cc1cc(-n2c(=O)[nH]c(=O)n(C)c2=O)ccc1Oc1ccc(S(=O)(=O)C(F)(F)F)cc1` [ACD855], the “pro-cognitive effects in cognition models” value in test [1] is listed as “potent pro-cognitive effects”.

In the case of `CNC1(c2ccccc2Cl)CCCCC1=O` (stereo not shown) [Ketamine, ketamine], the “prolonged effect on immobility time in forced swim test” value in the test on C57BL/6J mice was “prolonged antidepressive-like effects”.

Turning to “BDNF: recombinant human brain-derived neurotrophic factor (PeproTech 450-02)”, in test [2], the “phosphorylation of ERK1/2” value is “the most effective growth factors with respect to inducing phosphorylation of ERK1/2” and the “phosphorylation of Trk-receptors (pY674/675)” value is “the only growth factors that induced phosphorylation of Trk-receptors”. Besides, the “metabolic activity (reduction of resazurin)” value in the test with primary cortical neurons [3] is recorded as “significantly higher fluorescence”. Moreover, in the test on primary cortical neurons [4], the cell membrane integrity result is on record as “improved cell membrane integrity” and the ATP levels entry is reported as “able to increase ATP levels”.

“NGF: recombinant human nerve growth factor (PeproTech 450-01)”: in the test with primary cortical neurons [3], the “metabolic activity (reduction of resazurin)” value is on record as “significantly higher fluorescence”. Also, in the test on primary cortical neurons [4], the cell membrane integrity entry was “improved cell membrane integrity” and the ATP levels result is given as “able to increase ATP levels”.

B1: NT3: neurotrophin-3, binds to TrkC (protein, UniProt P20783 139-257, looked up)
Neurotrophin-3: YAEHKSHRGEYSVCDSESLWVTDKSSAIDIRGHQVTVLGEIKTGNSPVKQYFYETRCKEARPVKNGCRGIDDKHWNSQCKTSQTYVRALTSENNKLVGWRWIRIDTSCVCALSRKIGRT
As for B1, in test [2], the “phosphorylation of ERK1/2” value is reported as “the most effective growth factors with respect to inducing phosphorylation of ERK1/2” and the “phosphorylation of Trk-receptors (pY674/675)” value is listed as “the only growth factors that induced phosphorylation of Trk-receptors”.

B2: BDNF: recombinant human brain-derived neurotrophic factor (PeproTech 450-02) (protein, UniProt P23560 19-247, looked up)
Neurotrophic factor BDNF …: APMKEANIRGQGGLAYPGVRTHGTLESVNGPKAGSRGLTSLADTFEHVIEELLDEDQKVRPNEENNKDADLYTSRVMLSSQVPLEPPLLFLLEEYKNYLDAANMSMRVRRHSDPARRGELSVCDSISEWVTAADKKTAVDMSGGTVTVLEKVPVSKGQLKQYFYETKCNPMGYTKEGCRGIDKRHWNSQCRTTQSYVRALTMDSKKRIGWRFIRIDTSCVCTLTIKRGR
B2: in the test with human TrkB receptor, the “BDNF-induced TrkB tyrosine phosphorylation” value was “in a dose- and time-dependent manner, increase TrkB phosphorylation”.
